Molecules are shown by their SMILES.

For orientation: melting point means the temperature, or range, at which the solid turns liquid. For `CCCCCCCCCCCCCC=CC(O)C(CO)NC(=O)CCCCCCCCCCCCCCC` (configuration not stated), the melting point fell in the range of 94 to 95 °C.

Consider `COc1cc(C=CC(=O)O)ccc1OC(C)=O`, for which the melting point worked out at 195 °C.

`Cc1onc(-c2ccccc2)c1CO`: the melting point lay in the range of 81 to 82 °C.

Regarding `CCCCCCCCCCCCC(Br)C(=O)O` (configuration not stated), the melting point was found to be 42 °C.

`Clc1ccc(C(Cl)Cl)c(Cl)c1Cl` had a melting point of 84 °C.

`CCOC(=O)c1sc2sc(C(=O)OCC)c(N)c2c1N` yielded a melting point of 200 °C.

Compound `CCC(C(=O)O)C1(O)CCCCC1` (configuration not stated) gave a melting point of 81.5 °C.

As for `CCCCCCCCCCCC(=O)Oc1ccccc1`, the melting point was 24.5 °C.

For the compound `Nc1ccc(Br)c(Cl)c1Cl`, the melting point fell in the range of 75 to 77 °C.

For the compound `CC(C)OC(=O)C1=C(C(=O)O)C2c3ccccc3C1c1ccccc12`, the melting point was found to be 176 °C.

The compound `N#CC(=Cc1cccc(O)c1)C(=O)O` displayed a melting point of 230 to 233 °C.

For the compound `CCCC(=O)Oc1c[nH]c2ccc(Br)c(Cl)c12`, the melting point lay within 91 to 93 °C.

`Cc1ccc(C(=O)O)cc1O` yielded a melting point of 210 °C.

`O=C(CCCl)c1ccccc1` gave a melting point of 48.5 °C.

Take `O=C(O)C=Cc1ccc(F)cc1Cl`: the melting point came out at 247 °C.

Take `COc1cc(O)c(C(C)=O)c(O)c1`: the melting point fell in the range of 144 to 149 °C.

For the compound `CC(=O)c1c(-c2ccc(Cl)cc2)noc1C`, the melting point lay in the range of 56 to 59 °C.

In the case of `CC(c1ccccc1)N1CC(C(=O)O)CC1=O` (configuration not stated), the melting point lay within 210 to 213 °C.

In the case of `O=C1/C(=C/c2ccccc2O)SC(=S)N1CN(CCCl)CCCl`, the melting point amounted to 233 °C.

As for `c1ccc2nsnc2c1`, the melting point was determined as 43 °C.

For `CC(SCc1ccccc1)C(=O)O` (configuration not stated), the melting point fell in the range of 79 to 81 °C.

In turn, `NN=C1c2ccccc2C(=O)C1C(=O)C(c1ccccc1)c1ccccc1` (configuration not stated) displayed a melting point of 241 to 243 °C.

Take `CCCCCCCCCCCCCCCC(C)CC` (configuration not stated): the melting point came out at 1 °C.

Compound `c1ccc(CCNc2cccc3cccnc23)cc1` showed a melting point of 57.6 °C.

For `CCOC(=O)C1=C(C)NC(C)=C(C(=O)OCC)C1c1ccccc1`, the melting point came to 157 °C.

As for `CCOc1ccc(CO)cc1OC`, the melting point is 54 to 59 °C.

In turn, `CCOC(=O)c1cnn(-c2ccc(F)cc2)c1N` registered a melting point of 153 to 154 °C.

As for `O=C(Nc1ccc([N+](=O)[O-])cc1Br)C1(F)C(F)(F)C(F)(F)C(F)(F)C(F)(F)C1(F)F`, the melting point stood at 102 °C.

For the compound `Sc1ccc2ccccc2c1`, the melting point is 81 °C.

In turn, `CC(C)(C)OC(=O)N1CCN(CCC(=O)O)CC1` yielded a melting point of 138 to 139 °C.

Regarding `ClC=C(Cl)C(Cl)=CCl`, the melting point was -4 °C.

In turn, `COC1CCC=CO1` (configuration not stated) came in with a melting point of 16 °C.

As for `OC(C1=CC(=C(c2ccccn2)c2ccccn2)C=C1)(c1ccccn1)c1ccccn1`, the melting point was found to be 146 °C.

As for `CCOCCOC(=O)CCCCCCCCC(=O)OCCOCC`, the melting point is -1 °C.

In turn, `CC(C)[C@@H]1C(=O)N(c2ccccc2)[C@@H]1c1ccccc1` yielded a melting point of 169 °C.

`COc1ccccc1-c1nnc2n1CN(C(C)C)CS2`: the melting point is 207 °C.

In the case of `Fc1c(Cl)c(F)c(Br)c(F)c1Cl`, the melting point was 58 to 59.5 °C.

For `Ic1ccc(I)c(I)c1I`, the melting point worked out at 136 °C.

In turn, `OC(CCl)CCl` registered a melting point of -4 °C.

`FC(F)(F)c1cccnc1S` displayed a melting point of 180 to 182 °C.

Turning to `BrCc1cccc2nonc12`, the melting point was in the range of 77 to 79 °C.

Consider `O=C(NCNN(CNC(=O)c1ccccc1)CNC(=O)c1ccccc1)c1ccccc1`, for which the melting point was 123 to 125 °C.

With `CC(=O)NCCCCCCNC(C)=O`, the melting point is 128 to 129 °C.

The compound `O=P(OCCCl)(OCCCl)OCCCl` displayed a melting point of -35 °C.

In turn, `FC(F)(F)CCCl` came in with a melting point of -106 °C.

For `c1ccc2c(-c3nnc(-c4cccc5ccccc45)o3)cccc2c1`, the melting point came out at 177 °C.

As to `COc1ccc(CCO)cc1`, the melting point is 28 to 30 °C.

In turn, `O=C1CCCN1c1ccc(C(F)(F)F)cc1` had a melting point of 134 to 136 °C.

`ClCC1CCN(c2ncnc3ccsc23)CC1` gave a melting point of 99 to 100 °C.

For the compound `O=[N+]([O-])c1cc(S(=O)(=O)Cl)sc1Cl`, the melting point was 53 °C.

Compound `O=C(O)c1cc(-c2ccc(Cl)cc2)oc1C(F)(F)F` gave a melting point of 192 to 193 °C.

The compound `CC1=CC(=O)C(C)=CC1=O` returned a melting point of 123 to 126 °C.

As to `CCC(C)S` (configuration not stated), the melting point was -165 °C.

Consider `N#Cc1cccc(Cl)c1`, for which the melting point was 41 °C.

Regarding `O=C(O)c1cncnc1`, the melting point fell in the range of 259 to 261 °C.

Compound `Sc1ccc(S)cc1` had a melting point of 97 °C.

In turn, `Nc1ncc(Cl)cn1` came in with a melting point of 235 °C.

`Cc1ccc(C(=O)C=Cc2cccc([N+](=O)[O-])c2)cc1` returned a melting point of 134 to 137 °C.

With `Cc1ccc(-c2ccc(C=C3C(=O)NC(=O)NC3=O)o2)cc1`, the melting point was determined as 265 °C.

Consider `Nc1nn2c(C(F)(F)F)cc(=O)[nH]c2c1/N=N/c1c(Cl)cc(Cl)cc1Cl`, for which the melting point stood at 275 °C.

`CCOc1nc2ccccc2c(=O)n1CCO` showed a melting point of 81 to 82 °C.

Regarding `FC(F)(F)c1nc(C(F)(F)F)nc(C(F)(F)F)n1`, the melting point was -24.8 °C.

Compound `c1coc(C2CNCCN2)c1` (configuration not stated) registered a melting point of 87 °C.

`CC(=O)C1CCC2C3CCC4=CC(=O)CCC4(C)C3C(=O)CC12C` (configuration not stated): the melting point came to 172 °C.

Regarding `CCC(C(=O)NC(=O)NC(C)=O)c1ccccc1` (configuration not stated), the melting point was 100 °C.

`Nc1nnc(Cc2ccccc2)[nH]1` gave a melting point of 171 to 173 °C.

`C(=NN=Cc1ccccc1)c1ccccc1` displayed a melting point of 93 °C.

`OCC1OC(n2cnc3c(NCc4ccccc4)ncnc32)C(O)C1O` (configuration not stated) yielded a melting point of 184 to 186 °C.

`CCCOC1CCC2C3CCC4=CC(=O)CCC4(C)C3CCC12C` (configuration not stated) returned a melting point of 117 to 119 °C.

On to `C=CCC1(CC(C)O)C(=O)NC(=O)NC1=O` (configuration not stated), for which the melting point was found to be 158 °C.

On to `CC(C)(C)c1ccc(C2CCC3(CC2)Cc2ccc(OS(=O)(=O)C(F)(F)F)cc2C3)cc1` (configuration not stated), for which the melting point fell in the range of 122 to 124 °C.

With `CC(=O)OCC12CC(OC(=O)CC(C)C)C(C)=CC1OC1C(O)C(OC(C)=O)C2(C)C12CO2` (configuration not stated), the melting point came to 152 °C.

In the case of `CC(=O)N1CCC(C(=O)Cl)CC1`, the melting point was 132 °C.

The compound `OCc1ccc(N2CCOCC2)cc1` yielded a melting point of 96 to 98 °C.

`O=C=Nc1ccc(-c2ccco2)cc1`: the melting point amounted to 66 °C.

In turn, `CN(C)c1ccc(C(O)C2C(=O)N(c3ccccc3)N=C2C(F)(F)F)cc1` (configuration not stated) registered a melting point of 171 °C.

Turning to `NC(=O)c1cc(Cl)ccc1N`, the melting point is 171 °C.

`O=C(O)c1ccc(Sc2ccc(Cl)cc2)c([N+](=O)[O-])c1`: the melting point lay within 217 to 220 °C.

The compound `NCP(=O)(O)O` gave a melting point of 300 °C.

On to `Nc1ccc(Nc2ccc(N)c3c2C(=O)c2ccccc2C3=O)c2c1C(=O)c1ccccc1C2=O`, for which the melting point stood at 275 °C.

The compound `C=CCNC(N)=O` gave a melting point of 85 °C.

Compound `CC(C)(C)OC(=O)N1CCN(c2cc(C(=O)O)ccn2)CC1` displayed a melting point of 174 to 176 °C.

For `CCOC(=O)c1c(NC(=O)CN2CCN(C(=O)OCC)CC2)sc2c1CCCC2`, the melting point lay within 122 to 123 °C.

The compound `COC(=O)c1cccc(C(=O)O)c1` gave a melting point of 166 °C.

Turning to `Oc1c(F)c(F)c(F)c2c(F)c(F)c(F)c(F)c12`, the melting point was 103 to 107 °C.

In turn, `CC(C)(C(=O)O)c1ccc(Cl)cc1` yielded a melting point of 127 °C.

For `O=C1C(c2ccccn2)=[N+]([O-])c2ccccc21`, the melting point came to 182 °C.

Take `Oc1ccc2ccc(O)cc2c1`: the melting point worked out at 193 °C.

In turn, `COC(=O)C=Cc1ccc(O)c(OC)c1` displayed a melting point of 64 °C.

Compound `CCOc1ccc(-c2nnc3n2NC(c2ccc([N+](=O)[O-])cc2)S3)cc1` (configuration not stated) displayed a melting point of 98 °C.

Regarding `CCOC(=O)C(C)(C)C1=CCC2(C)C(CCC3C2CCC2(C)C(OCc4ccccc4)CCC32)C1` (configuration not stated), the melting point is 138 °C.

With `O=C(O)Cc1ccccc1Nc1c(Cl)cccc1Cl`, the melting point was found to be 157 °C.

Compound `O=S(=O)(Cl)c1cc(C(F)(F)F)ccc1N1CCOCC1` returned a melting point of 81.5 to 84 °C.

For `C=C(C)C(=O)NCO`, the melting point was -37 °C.

With `O=[N+]([O-])c1ccc(-c2nnc3n2NC(c2ccccc2O)S3)cc1` (configuration not stated), the melting point was determined as 195 °C.

Take `CCCCOC(=O)CC(O)(CC(=O)OCCCC)C(=O)OCCCC`: the melting point is -20 °C.

`Clc1ccc(-c2c(Cl)cc(Cl)c(Cl)c2Cl)cc1Cl`: the melting point came out at 107 °C.

Regarding `CC1CC(C)(C)CC(OOC(C)(C)C)(OOC(C)(C)C)C1` (configuration not stated), the melting point was -20 °C.

`CCCCCCCCCCOc1ccc(C=O)cc1OCCCCCCCCCC` gave a melting point of 61 to 66 °C.

`CCOC(=O)c1cc(C(=O)OCC)[nH]n1`: the melting point is 51 to 55 °C.

For `CCCC(C)S` (configuration not stated), the melting point is -169 °C.

As for `COc1cc(C)cc2c1C(=O)C2`, the melting point worked out at 93 °C.

`O=C(O)C(=O)c1cccs1` had a melting point of 89 to 95 °C.

`CC(C(=O)O)=C(C)c1cccc(C)c1` registered a melting point of 163 °C.

The compound `CCCCCC(O)c1ccc(O)c(O)c1` (configuration not stated) registered a melting point of 109 °C.

Consider `O=C1OC2(c3ccc(Cl)cc3Oc3cc(Cl)ccc32)c2ccccc21`, for which the melting point lay in the range of 253 to 255 °C.

Regarding `C=CCCCCCCCCCCC`, the melting point was -13 °C.

Compound `CCOC(=O)c1c(NC(=S)Nc2ccc(OC)cc2)sc2c1CCCC2` gave a melting point of 163 to 165 °C.

With `N=c1oc2ccccc2cc1CSN`, the melting point was 165 °C.

`CC(=O)OC1CC2C(C)C(=O)C3(C(O)CC4C(C)(C)CCCC4(CO)C13)C2O` (configuration not stated) gave a melting point of 120 °C.

Regarding `CCN(CC)C(=O)CC(C)=O`, the melting point was -73 °C.

As to `CCn1c2ccccc2c2cc(C=O)ccc21`, the melting point was 85 to 91 °C.

Values taken from a melting point compilation (Tetko et al.).
